Results published in patent publication US8883410B2, “Method for determining the stability of organic methyleneamines in the presence of semicarbazide-sensitive amine oxidase” (Sanofi, priority 2007, dated 2014).

Target: T1, human SSAO T1 (Gly27-Asn763), C-terminal 6xHIS tag (Homo sapiens, UniProt Q16853)
T1 construct: T1 (Gly27-Asn763) Representing the Enzyme Lacking the Membrane Anchoring Region; additional N-terminal Met (N); expressed in transfected cells; cell lysate
T1 sequence (Q16853 27-763): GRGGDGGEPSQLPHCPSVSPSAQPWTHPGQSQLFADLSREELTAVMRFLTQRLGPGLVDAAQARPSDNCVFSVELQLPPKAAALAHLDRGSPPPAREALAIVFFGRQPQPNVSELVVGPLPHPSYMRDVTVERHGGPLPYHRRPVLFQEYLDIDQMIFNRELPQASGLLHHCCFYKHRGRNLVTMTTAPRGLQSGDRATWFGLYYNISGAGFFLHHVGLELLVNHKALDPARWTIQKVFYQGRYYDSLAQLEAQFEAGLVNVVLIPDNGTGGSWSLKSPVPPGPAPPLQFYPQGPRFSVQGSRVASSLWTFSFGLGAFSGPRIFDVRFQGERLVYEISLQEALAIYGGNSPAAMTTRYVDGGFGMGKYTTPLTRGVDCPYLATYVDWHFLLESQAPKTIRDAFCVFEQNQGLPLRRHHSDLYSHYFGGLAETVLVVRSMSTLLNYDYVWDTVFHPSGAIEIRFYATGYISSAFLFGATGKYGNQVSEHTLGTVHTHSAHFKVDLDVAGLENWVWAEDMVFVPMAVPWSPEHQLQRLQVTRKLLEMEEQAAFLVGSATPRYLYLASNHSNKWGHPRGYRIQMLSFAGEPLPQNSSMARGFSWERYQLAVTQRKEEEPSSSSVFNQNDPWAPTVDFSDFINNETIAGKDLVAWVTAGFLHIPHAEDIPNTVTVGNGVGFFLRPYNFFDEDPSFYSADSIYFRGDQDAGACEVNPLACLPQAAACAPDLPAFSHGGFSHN
Test: Benzylamine stability in lysate of cells expressing T1 SSAO with C-terminal 6xHIS tag, LC/MS/MS
Format: in vitro ADME
Protocol: 3) T1 (Gly27-Asn763) Representing the Enzyme Lacking the Membrane Anchoring Region:
The expression constructs were prepared by cloning these PCR products into the pCDNA5-FRT-To-DEST vector (Invitrogen, Gateway System™). The forward and reverse DNA sequence of each construct was confirmed including expressed sequences and at least 100 base pairs either side of this. Stable cell lines for Flp-In CHO, Flp-In CHO T-Rex, and Flp-In HEK 293 (Invitrogen, Flp-In system™) were generated using these 6 constructs according to manufacturer's instructions. Cells were co-transfected with the regulatory vector, pOG44, and each of the pCDNA5-FRT-To-DEST constructs using Lipfectamine (Invitrogen) according to manufacturer's instructions. Thus, 18 cell lines were generated: CHO Flp-In full-length SSAO; CHO Flp-In full-length SSAO with C-terminal 6×HIS tag; CHO Flp-In T1 SSAO; CHO Flp-In T1 SSAO with C-terminal 6×HIS tag; CHO Flp-In T2 SSAO; CHO Flp-In T2 SSAO with C-terminal 6×HIS tag; CHO T-Rex Flp-In full-length SSAO; CHO T-Rex Flp-In full-length SSAO with C-terminal 6×HIS tag; CHO T-Rex Flp-In T1 SSAO; CHO T-Rex Flp-In T1 SSAO with C-terminal 6×HIS tag; CHO T-Rex Flp-In T2 SSAO; CHO Flp-In T2 SSAO with C-terminal 6×HIS tag; HEK 293 Flp-In full-length SSAO; HEK 293 Flp-In full-length SSAO with C-terminal 6×HIS tag; HEK 293 Flp-In T1 SSAO; HEK 293 Flp-In T1 SSAO with C-terminal 6×HIS tag; HEK 293 Flp-In T2 SSAO; HEK 293 Flp-In T2 SSAO with C-terminal 6×HIS tag.
Adherent CHO cells were cultured at 37° C., 5% CO2 in media containing Ham's F12, 10% fetal bovine serum, 2 mM L-glutamine, 1% Penicillin/Streptomycin, 300 μM hygromycin B. Adherent HEK 293 cells were cultured at 37° C., 5% CO2 in D-MEM (high glucose), 10% fetal bovine serum, 2 mM L-glutamine, and 200 μM hygromycin B. Stable transformants were identified by loss of zeocin resistance. Once the cells were 80% confluent, SSAO expression was induced by the addition of Tetracycline to 1 μg/mL. Following 18 hours, the cells were harvested using a trypsin treatment of 3 minutes, at room temperature. Cells were washed 3 times in phosphate buffered saline before flash freezing in liquid nitrogen.
For the preparation of cell lysate for activity testing, frozen cell pellets were resuspended in lysate buffer containing 10 mM Tris-HCl (pH 7.2), 150 mM NaCl, 1.5 mM MgCl2, 1% v/v NP-40 and incubated for 15 minutes on ice. Lysate was cleared by centrifugation 800×g for 10 minutes, 4° C. and stored in aliquots at −80° C. until use. Proteins were determined using Pierce Coomassie Protein Reagent, according to manufacturer's instructions.
For each assay run, 1 mL of cell lysate (1.5 mg/mL protein) was mixed with benzylamine to 2000 ng/mL final concentration. At each corresponding time point, […] the incubation mixture was transferred to a microcentrifuge tube (1.7 mL) and mixed with 50 μL of acetonitrile. The tubes were vortex mixed briefly to ensure complete mixing and then centrifuged at 10,000×g for 5 minutes. The supernatant was removed and 50 μL was transferred to an autosampler vial and mixed with 50 μL of water before LC/MS/MS analysis. Benzylamine remaining in the lysate was analyzed with LC/MS/MS method.
LC/MS/MS analysis was performed with a PE Sciex API 3000 mass spectrometer under the following conditions listed below and in Tables 1 and 2: […]

Benzylamine Remaining (%) (CHO Flp-In T-Rex lysate, 0 min): 100%
Benzylamine Remaining (%) (CHO Flp-In T-Rex lysate, 10 min): 95%
Benzylamine Remaining (%) (CHO Flp-In T-Rex lysate, 2 h): 93%
Benzylamine Remaining (%) (CHO Flp-In lysate, 0 min): 100%
Benzylamine Remaining (%) (CHO Flp-In lysate, 10 min): 101%
Benzylamine Remaining (%) (CHO Flp-In lysate, 2 h): 98%
Benzylamine Remaining (%) (HEK293 lysate, 0 min): 100%
Benzylamine Remaining (%) (HEK293 lysate, 10 min): 111%
Benzylamine Remaining (%) (HEK293 lysate, 2 h): 103%
Structure (SMILES): NCc1ccccc1 [Benzylamine]
